# Columns and labels:
# [1] = system: RAW264.7; test: Antiinflammatory activity in mouse RAW264.7 cells assessed as inhibition of LPS-induced nitric oxide production by measuring nitrite accumulation by Griess method; format: functional, cell-based
# [2] = system: RAW264.7; test: Antiinflammatory activity in mouse RAW264.7 cells assessed as inhibition of LPS-induced iNOS mRNA expression after 20 hrs by RT-PCR method; format: functional, cell-based
# [3] = system: RAW264.7; test: Antiinflammatory activity in mouse RAW264.7 cells assessed as inhibition of LPS-induced COX2 mRNA expression after 20 hrs by RT-PCR method; format: functional, cell-based
# [4] = system: RAW264.7; test: Cytotoxicity in LPS-stimulated mouse RAW264.7 cells at =>100 uM by MTT assay; format: cell-based
# [5] = system: RAW264.7; test: Cytotoxicity in LPS-stimulated mouse RAW264.7 cells at =>10 uM by MTT assay; format: cell-based
IC50 ([1]; read-out: IC50) [µM],Structure (SMILES),also measured
12.6,COC(=O)[C@H]1[C@@H](C(=O)CC[C@H]2[C@H](C)OC(=O)[C@H]2C)CC=C2C[C@@H](O[C@H]3C[C@@H](OC)[C@@H](OC(C)=O)[C@@H](C)O3)CC[C@@]21C,Activity [2]: Dose-dependent effect; Activity [3]: Dose-dependent effect; Activity [4]: Toxic
62.5,CO[C@@H]1C[C@H](O[C@H]2CC[C@@]3(C)C(=CC[C@]4(O)[C@@H]3C(=O)[C@@H]3O[C@H](C)[C@@H]5CC[C@@]4(O)[C@]35C)C2)O[C@H](C)[C@@H]1O,
87.3,COC(=O)[C@H]1[C@@H](C(=O)CC[C@H]2[C@H](C)OC(=O)[C@@H]2C)CC=C2C[C@@H](O[C@H]3C[C@@H](OC)[C@@H](O)[C@@H](C)O3)CC[C@@]21C,Activity [5]: Toxic
84,CO[C@@H]1C[C@H](O[C@H]2CC[C@@]3(C)C(=CC[C@@H]4[C@@H]3C(=O)[C@]3(O)O[C@H](C)[C@@H]5CC[C@@]4(O)[C@@]53C)C2)O[C@H](C)[C@@H]1O,
66.1,COC(=O)[C@H]1[C@@H](C(=O)CC[C@H]2[C@H](C)OC(=O)[C@H]2C)CC=C2C[C@@H](O[C@H]3C[C@@H](OC)[C@@H](O)[C@@H](C)O3)CC[C@@]21C,
> 100,CO[C@@H]1C[C@H](O[C@H]2CC[C@@]3(C)C(=CC[C@@H]4[C@@H]3C(=O)[C@@H]3O[C@H](C)[C@@H]5CC[C@@]4(O)[C@]35C)C2)O[C@H](C)[C@@H]1O[C@@H]1O[C@H](CO)[C@@H](O)[C@H](O)[C@H]1O,
87.8,CO[C@@H]1C[C@H](O[C@H]2CC[C@@]3(C)C(=CC[C@]4(O)[C@@H]3C(=O)[C@@H]3O[C@H](C)[C@@H]5CC[C@@]4(O)[C@]35C)C2)O[C@H](C)[C@@H]1OC(C)=O,
> 100,CO[C@@H]1C[C@H](O[C@H]2CC[C@@]3(C)C(=CC[C@]4(O)[C@@H]3C(=O)[C@@H]3OC(C)[C@@H]5CC[C@@]4(O)[C@]35C)C2)O[C@H](C)[C@@H]1O[C@@H]1O[C@H](CO)[C@@H](O)[C@H](O)[C@H]1O (stereo partly drawn),
60.4,CO[C@@H]1C[C@H](O[C@H]2CC[C@@]3(C)C(=CC[C@@H]4[C@@H]3C(=O)O[C@@]43CC[C@H]4[C@H](C)OC(=O)[C@]43C)C2)O[C@H](C)[C@@H]1OC(C)=O,
54.5,CC(C)Cc1ccc(C(C)C(=O)O)cc1 (stereo not drawn) [IBUPROFEN],
31.6,COC(=O)[C@H]1[C@@H](C(=O)CC[C@H]2[C@H](C)OC(=O)[C@@H]2C)CC=C2C[C@@H](O[C@H]3C[C@@H](OC)[C@@H](OC(C)=O)[C@@H](C)O3)CC[C@@]21C,
46.5,COc1ccc2c(c1)c(CC(=O)O)c(C)n2C(=O)c1ccc(Cl)cc1 [INDOMETHACIN],
93.8,CO[C@@H]1C[C@H](O[C@H]2CC[C@@]3(C)C(=CC[C@@H]4[C@@H]3C(=O)O[C@@]43CC[C@H]4[C@H](C)OC(=O)[C@]43C)C2)O[C@H](C)[C@@H]1O,
91.2,CO[C@@H]1C[C@H](O[C@H]2CC[C@@]3(C)C(=CC[C@@H]4[C@@H]3C(=O)[C@@H]3O[C@H](C)[C@@H]5CC[C@@]4(O)[C@]35C)C2)O[C@H](C)[C@@H]1OC(C)=O,
9.3,O=C(/C=C/c1ccc(O)c(O)c1)OCCc1ccccc1 [CAFFEIC ACID PHENETHYL ESTER],
96.5,CO[C@@H]1C[C@H](O[C@H]2CC[C@@]3(C)C(=CC[C@@H]4[C@@H]3C(=O)[C@@H]3O[C@H](C)[C@@H]5CC[C@@]4(O)[C@]35C)C2)O[C@H](C)[C@@H]1O,Activity [4]: Toxic
,CC(=O)Oc1ccccc1C(=O)O [ASPIRIN],IC50 [1]: 43.2 µM

Structure (SMILES),IC50 ([1]; read-out: IC50) [µM],also measured
N=C(NCCC[C@H](N)C(=O)O)N[N+](=O)[O-] [NITROARGININE],37.7,
